Where two headings read alike, the source gives them in different places.
Assays:
[1] = female rats, intravenous 0.06 mg Ca, after two hours
Description: Six female rats, weighing 250 gms.±10 gms., were divided into two groups. All rats were anethetized with 0.15 mls sodium phenobarbital USP. […] To the other three, the same amount of calcium was administered in the form a calcium chloride.
After two hours, all of he rats were sacrificed and the hypothalamus was removed and read for radioactivity.

[2] = radioactive zinc in male sex tissues after intravenous dosage (Example II); conditions: rats, intravenous 0.06 mg zinc, 24 hours post treatment, group average
Description: Three groups of rats, six in each group, weighing 250 gms±10 gms. were given an intravenous dosage, of 0.06 mg zinc containing 10 microcuries of radioactive zinc.
Each rat was sacrificed 24 hours post treatment and the testes, epididymis, and seminal visicle of each were exposed, excised and a determination was made of the amount of radioactive zinc in each.

[3] = radioactive zinc in tissues after injection into the jugular vein (Example IV); format: in vivo; conditions: rats, two hours post injection, group mean
Description: The method of Example III was again utilized except that the manganese was replaced by zinc. […] The same dosage as in Example III was administered. Only six rats were utilized for this experiment, three in each group, and they were sacrificed two hours post injection into the jugular vein. Six tissues, i.e. brain, skeletal muscle, liver, hypothalamus, pituitary and uterus were analyzed for radioactive zinc with the following mean results for each group reported in terms of cc/min/mg of tissue.

[4] = design: species or system rats; conditions: rat, in vivo
Excerpt: Leucine was used as the ligand and zinc as the metal. Composition A is therefore a mixture, or at best a complex consisting of one mole of leucine (mole weight 131.17) and one more of zinc chloride. […] Composition B consisted of two moles of leucine admixed with one mole of zinc chloride to form a mixture. […] Composition A contained leucine equivalent to 10 microliters of 0.76M. leucine and was adjusted to pH 9 with 20 microliters of 0.05 N NaOH. Composition B contained leucine equivalent to 20 microliters of 0.76M. leucine containing 20 microliters distilled water in lieu of pH adjustment. The pH of this solution was about 3. Composition C contained the same ingredients as Composition B except in chelated form and the pH was adjusted to 9 with 20 microliters of 0.13M Na2 CO3. The procedure of Example lI was fo lowed using three rats in each group. Upon sacrificing, blood was drawn and certain tissues excised to determine the amount of radioactive zinc which had migrated to the blood and tissues two hours post injection.

[5] = stability constant of amino acid chelate; format: physicochemical
Excerpt: The determination of stability constants of amino acid chelates is well documented in U.S. Pat. No. 4,167,564 and the means by which amino acid chelates may be formulated to provide optimal stability constants within the required ranges are disclosed in U.S. Pat. Nos. 4,176,564 and 4,172,072.

With [Ca+2].[Cl-].[Cl-] [inorganic calcium, calcium chloride] the “radioactivity in hypothalamus, mean corrected counts per minute per milligram of tissue” value [1] was 67.1±8.4 cc/min/mg.

With [Cl-].[Cl-].[Zn+2] [Zinc Chloride, zinc chloride] the “radioactive zinc in Epididymis” value [2] was “Negligible”, the “radioactive zinc in Seminal Vesicle” value [2] was “Negligible” and the “radioactive zinc in Testes” value [2] was “Negligible”. For the same compound, the “radioactive zinc in Brain” value [3] was 5.1 cc/min/mg, the “radioactive zinc in Hypothalamus” value [3] was 3.0 cc/min/mg and the “radioactive zinc in Liver” value [3] was 94.2 cc/min/mg. The “radioactive zinc in Pituitary” value [3] was 17.0 cc/min/mg, the “radioactive zinc in Skeletal Muscle” value [3] was 5.2 cc/min/mg and the “radioactive zinc in Uterus” value [3] was 14.0 cc/min/mg.

For CC(C)C[C@H](N)C(=O)[O-].CC(C)C[C@H](N)C(=O)[O-].[Zn+2] [Comp. C, zinc-leucine amino acid chelate], the “radioactive zinc in Blood” value [4] was 1.64 cc/min/mg, the “radioactive zinc in Heart” value [4] was 6.32 cc/min/mg and the “radioactive zinc in Kidney” value [4] was 8.55 cc/min/mg. The “radioactive zinc in Liver” value [4] was 8.65 cc/min/mg, the “radioactive zinc in Muscle” value [4] was 3.88 cc/min/mg and the “radioactive zinc, Total of blood and tissues” value [4] was 31.45 cc/min/mg.

With NCC(=O)[O-].NCC(=O)[O-].[Zn+2] [GROUP II, zinc-glycine chelate] the stability constant [5] was 10^7.

In the case of zinc-arginine chelate [GROUP I], the stability constant [5] is reported as 10^7.

— patent publication US4863898A, “Amino acid chelated compositions for delivery to specific biological tissue sites” (priority 1986, dated 1989)
